Measurements reported in the supplement of paper PMC10307832.

Columns and labels:
Assay in all cases: relative viability (nuclei count vs DMSO), 5 days (fraction); higher = more cells survive
[1] = test system: PC-14
Outline: (§1)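 Relative viability equals treated-well nuclei counts divided by vehicle-well nuclei counts. Counts came from 4× images of lung cancer cell lines grown in 1536-well plates for 5 days after pin-tool dosing on the day after seeding. Dosing used one drug alone or a fixed anchor-drug dose plus five library-drug doses (not always all listed) in √10 steps, and values are medians of duplicate plates.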

[2] = test system: NCI-H2342
Outline: as §1

[3] = test system: NCI-H1395
Outline: as §1

[4] = test system: HCC-15
Outline: as §1

[5] = test system: NCI-H2170
Outline: as §1

[6] = test system: NCI-H1355
Outline: as §1

[7] = test system: NCI-H1734
Outline: as §1

[8] = test system: NCI-H2228
Outline: as §1

[9] = test system: HOP-62
Outline: as §1

[10] = test system: UMC-11
Outline: as §1

[11] = test system: COR-L 105
Outline: as §1

[12] = test system: NCI-H1793
Outline: as §1

[13] = test system: SK-MES-1
Outline: as §1

[14] = test system: NCI-H1993
Outline: as §1

[15] = test system: NCI-H1755
Outline: as §1

[16] = test system: COR-L23
Outline: as §1

[17] = test system: NCI-H2347
Outline: as §1

[18] = test system: NCI-H358
Outline: as §1

[19] = test system: HARA
Outline: as §1

[20] = test system: NCI-H2009
Outline: as §1

[21] = test system: NCI-H647
Outline: as §1

[22] = test system: NCI-H838
Outline: as §1

[23] = test system: EKVX
Outline: as §1

C=C1C(=O)O[C@@H](CCCCCCCC)[C@@H]1C(=O)O [C-75] + N=C(N)NC(=N)NCCc1ccccc1 [Phenformin] (partner 250 µM)
relative viability ([1]; first compound 0.08 µM): 0.469
relative viability ([1]; first compound 0.253 µM): 0.516
relative viability ([1]; first compound 0.8 µM): 0.479
relative viability ([1]; first compound 2.53 µM): 0.549
relative viability ([1]; first compound 8 µM): 0.526
relative viability ([2]; first compound 0.08 µM): 0.542
relative viability ([2]; first compound 0.253 µM): 0.634
relative viability ([2]; first compound 0.8 µM): 0.664
relative viability ([2]; first compound 2.53 µM): 0.512
relative viability ([2]; first compound 8 µM): 0.524
relative viability ([3]; first compound 0.08 µM): 0.452
relative viability ([3]; first compound 0.253 µM): 0.454
relative viability ([3]; first compound 0.8 µM): 0.435
relative viability ([3]; first compound 2.53 µM): 0.45
relative viability ([3]; first compound 8 µM): 0.514
relative viability ([4]; first compound 0.08 µM): 0.489
relative viability ([4]; first compound 0.253 µM): 0.469
relative viability ([4]; first compound 0.8 µM): 0.42
relative viability ([4]; first compound 2.53 µM): 0.377
relative viability ([4]; first compound 8 µM): 0.446
relative viability ([5]; first compound 0.08 µM): 0.469
relative viability ([5]; first compound 0.253 µM): 0.453
relative viability ([5]; first compound 0.8 µM): 0.419
relative viability ([5]; first compound 2.53 µM): 0.404
relative viability ([5]; first compound 8 µM): 0.481
relative viability ([6]; first compound 0.08 µM): 0.488
relative viability ([6]; first compound 0.253 µM): 0.444
relative viability ([6]; first compound 0.8 µM): 0.452
relative viability ([6]; first compound 2.53 µM): 0.401
relative viability ([6]; first compound 8 µM): 0.484
relative viability ([7]; first compound 0.08 µM): 0.413
relative viability ([7]; first compound 0.253 µM): 0.427
relative viability ([7]; first compound 0.8 µM): 0.356
relative viability ([7]; first compound 2.53 µM): 0.286
relative viability ([7]; first compound 8 µM): 0.283
relative viability ([8]; first compound 0.08 µM): 0.294
relative viability ([8]; first compound 0.253 µM): 0.304
relative viability ([8]; first compound 0.8 µM): 0.33
relative viability ([8]; first compound 2.53 µM): 0.244
relative viability ([8]; first compound 8 µM): 0.277
relative viability ([9]; first compound 0.08 µM): 0.691
relative viability ([9]; first compound 0.253 µM): 0.718
relative viability ([9]; first compound 0.8 µM): 0.647
relative viability ([9]; first compound 2.53 µM): 0.616
relative viability ([9]; first compound 8 µM): 0.601
relative viability ([10]; first compound 0.08 µM): 0.335
relative viability ([10]; first compound 0.253 µM): 0.346
relative viability ([10]; first compound 0.8 µM): 0.325
relative viability ([10]; first compound 2.53 µM): 0.278
relative viability ([10]; first compound 8 µM): 0.272
relative viability ([11]; first compound 0.08 µM): 0.507
relative viability ([11]; first compound 0.253 µM): 0.485
relative viability ([11]; first compound 0.8 µM): 0.547
relative viability ([11]; first compound 2.53 µM): 0.436
relative viability ([11]; first compound 8 µM): 0.436
relative viability ([12]; first compound 0.08 µM): 0.365
relative viability ([12]; first compound 0.253 µM): 0.362
relative viability ([12]; first compound 0.8 µM): 0.287
relative viability ([12]; first compound 2.53 µM): 0.29
relative viability ([12]; first compound 8 µM): 0.486
relative viability ([13]; first compound 0.08 µM): 0.652
relative viability ([13]; first compound 0.253 µM): 0.697
relative viability ([13]; first compound 0.8 µM): 0.636
relative viability ([13]; first compound 2.53 µM): 0.658
relative viability ([13]; first compound 8 µM): 0.702
relative viability ([14]; first compound 0.08 µM): 0.528
relative viability ([14]; first compound 0.253 µM): 0.574
relative viability ([14]; first compound 0.8 µM): 0.476
relative viability ([14]; first compound 2.53 µM): 0.46
relative viability ([14]; first compound 8 µM): 0.506
relative viability ([15]; first compound 0.08 µM): 0.633
relative viability ([15]; first compound 0.253 µM): 0.587
relative viability ([15]; first compound 0.8 µM): 0.577
relative viability ([15]; first compound 2.53 µM): 0.529
relative viability ([15]; first compound 8 µM): 0.607
relative viability ([16]; first compound 0.08 µM): 0.44
relative viability ([16]; first compound 0.253 µM): 0.386
relative viability ([16]; first compound 0.8 µM): 0.41
relative viability ([16]; first compound 2.53 µM): 0.42
relative viability ([16]; first compound 8 µM): 0.421
relative viability ([17]; first compound 0.08 µM): 0.506
relative viability ([17]; first compound 0.253 µM): 0.599
relative viability ([17]; first compound 0.8 µM): 0.401
relative viability ([17]; first compound 8 µM): 0.379
relative viability ([18]; first compound 0.08 µM): 0.306
relative viability ([18]; first compound 0.253 µM): 0.328
relative viability ([18]; first compound 0.8 µM): 0.296
relative viability ([18]; first compound 2.53 µM): 0.326
relative viability ([18]; first compound 8 µM): 0.215
relative viability ([19]; first compound 0.08 µM): 0.46
relative viability ([19]; first compound 0.253 µM): 0.487
relative viability ([19]; first compound 0.8 µM): 0.342
relative viability ([19]; first compound 2.53 µM): 0.306
relative viability ([19]; first compound 8 µM): 0.434
relative viability ([20]; first compound 0.08 µM): 0.487
relative viability ([20]; first compound 0.253 µM): 0.534
relative viability ([20]; first compound 0.8 µM): 0.448
relative viability ([20]; first compound 2.53 µM): 0.427
relative viability ([20]; first compound 8 µM): 0.422
relative viability ([21]; first compound 0.08 µM): 0.52
relative viability ([21]; first compound 0.253 µM): 0.58
relative viability ([21]; first compound 0.8 µM): 0.417
relative viability ([21]; first compound 2.53 µM): 0.374
relative viability ([21]; first compound 8 µM): 0.382
relative viability ([22]; first compound 0.08 µM): 0.572
relative viability ([22]; first compound 0.8 µM): 0.515
relative viability ([22]; first compound 2.53 µM): 0.453
relative viability ([22]; first compound 8 µM): 0.49
relative viability ([23]; first compound 0.08 µM): 0.213
relative viability ([23]; first compound 0.253 µM): 0.228
relative viability ([23]; first compound 0.8 µM): 0.232
relative viability ([23]; first compound 8 µM): 0.25
